Marks after values point to notes of the source that are not given here.

For one experiment, the system named is T47D. The experiment can be described thus: In vivo efficacy, T47D breast cancer model. On the set-up: species or system mice. The conditions noted are these: Day 41, 10 mg/kg BID PO. Here is the method:
The T47D model was established by implanting passage 3 tumor fragments into recipient mice. To establish the T47D donor mice, tumor cells (5×10^6 cell/mouse with 50% Cultrex® Basement Membrane Matrix) were subcutaneously implanted in female NSG mice. […] All mice received treatment continuously until Day 41. TGI was assessed on Day 41 post first dose.

The subject of another experiment is NCI-H526 Model. In words: In vivo efficacy, NCI-H526 small cell lung cancer model. Further details: species or system mice. Here is the method: Female NSG (Jackson Lab) or Nu/nu (CRL) were subcutaneously implanted with tumor cells or fragments (8 mm^3 to 27 mm^3) into the dorsal region. For the MCF7 study, mice were supplemented with estrogen (sc implanted, 17β-estradiol, 0.36 mg, 90-day release pellet, Innovative Research of America, cat no. NE-121).
To establish the NCI-H526 model, tumor cells (4×10^6 cells/mouse with 50% Cultrex® Basement Membrane Matrix) were subcutaneously implanted in female Nu/nu mice. […] PF-07104091, Palbociclib at 10 mg/kg and CDK 2/4/6 inhibitor were administered (p.o.) BID (7 hr apart). TGI was assessed on Day 15 post first dose (or Day 20 post tumor cell implant).

In a further experiment the test system is MCF7 Cells. In words: Combination cell proliferation assay, MCF7. Type of experiment: cell-based, human. As to the method: (§1) The combination effects of PF-07104091 with palbociclib were evaluated in a cell proliferation assay with MCF7 and T47D BC cell lines. […] Drug combinations were analyzed using the Dose Equivalence Principle, and the Loewe Volume score. When modeling synergy using the Dose Equivalence Principle, the Loewe Volume score for the combination compounds should be greater than the compound self-cross controls, and the Combination Index score for the combination compounds should be less than compound self-cross controls. […] Furthermore, the isobolograms set to an anti-proliferation threshold at 70% confirm a synergistic response.

The test system of the next experiment is T-47D Cells. In words: Combination cell proliferation assay, T47D. Type of experiment: cell-based, human. Here is the method: as §1
In another experiment the test system is ST941PBR PDX. In words: In vivo efficacy, palbociclib-resistant ST941PBR PDX model. The conditions noted are these: Day 28, 10 mg/kg BID PO.
The subject of a further experiment is HCC1428. The experiment can be described thus: In vivo efficacy, HCC1428 breast cancer model. Further details: species or system mice. The settings on record: Day 42, 10 mg/kg BID PO, 10 mg/kg. As to the method: The HCC1428 model was established by implanting passage 4 tumor fragments into recipient mice. To establish the HCC1428 donor mice, tumor cells (5×10^6 cell/mouse with 50% Cultrex® Basement Membrane Matrix) were subcutaneously implanted in female NSG mice. […] All mice received treatment continuously until Day 42. TGI was assessed on Day 42 post first dose.

Procedure for ST941PBR PDX: Female NSG mice (Jackson Lab) were subcutaneously implanted with fragment (27 mm^3 to 64 mm^3 size) into the dorsal region. All mice for T47D, HCC1428 and ST941 PBR studies were supplemented with 8.5 μg/mL estradiol water (β-Estradiol Sigma-Aldrich, cat #E2758-5G) and gave ad libitum till end of study. For the in vivo efficacy studies, tumor volume and body weights were measured twice a week. Tumor volume was calculated using the [(Length×Width×Width)/2)] formula. TGI was calculated as 100*(1−ΔT/ΔC). The ΔC (ΔT) was obtained by subtracting the mean tumor burden in the vehicle (treated) group on the first day of treatment (Day 0) from the mean tumor burden in vehicle (treated) group on the assessment day. Statistical analysis was performed using ANCOVA when the mean tumor volume in vehicle treated mice reached tumor cutoff size.
The ST941 PBR palbociclib resistant model was obtained from XENOSTART™ LLC, San Antonio, Texas. We established model in house by continuous treatment of the ST941 PBR tumor bearing mice with PD-0332991 at 50 mg/kg, PO QD plus fulvestrant at 10 mg/kg, SC twice in the first week, then weekly thereafter. To propagate donors for the TGI study, tumors were transplanted to recipient mice. One week after the re-implantation, the recipient mice received continuous treatment with palbociclib plus fulvestrant (dosing schedule described above). After 1 to 2 serial in vivo propagation with the same treatment regimen, the resistant tumors in the range of 700 to 800 mm^3 were re-implanted for a study expansion. The remaining tumor fragments were viably frozen for future use.
The live donor mice were established by implanting ST941 PBR (p11) tumor fragments. Once reaching a range of 700 to 800 mm^3, the donor tumors were subsequently transplanted into secondary recipient mice for a study expansion. To maintain the resistant clones, the ST941 PBR tumor bearing mice were treated with PD-0332991 at 50 mg/kg, PO. QD plus fulvestrant at 10 mg/kg, SC twice in the first week, then weekly afterwards for 10 weeks. […] TGI was assessed on Day 28 post first dose.

Consider `CC(=O)c1c(C)c2cnc(Nc3ccc(N4CCNCC4)cn3)nc2n(C2CCCC2)c1=O` [Palbociclib, palbociclib, reference compound], for which the TGI % with T47D was 72* %; with NCI-H526 Model (10 mg/kg BID PO, Day 15), 33%; with NCI-H526 Model (10 mg/kg BID PO, Day 15, listed as palbociclib), 33%; in the experiment on NCI-H526 Model (50 mg/kg SID PO, Day 15), 22%; in the experiment with NCI-H526 Model (50 mg/kg SID PO, Day 15, listed as palbociclib), 22%; with ST941PBR PDX, 15%. The TGI % is listed as 44* % in the experiment on HCC1428 and 44% in the experiment on HCC1428 (listed as palbociclib). Further, the “Loewe Volume” value in the experiment on MCF7 Cells was −0.16; in the experiment with T-47D Cells it was −0.25. Further, the entries for the “Best CI” value in the experiment on MCF7 Cells (Best CI Level 70) and in the experiment with T-47D Cells (Best CI Level 70) were 0.94 and 0.96, respectively.
